# Source: paper PMC11527646, “Pharmacological blockade of the mast cell MRGPRX2 receptor supports investigation of its relevance in skin disorders” (Frontiers in Immunology, 2024)
# “Also recorded” adds a separate entry of the source.
# Columns and labels:
# MRGPRX2 [1] = biological target: T1, MRGPRX2 (Homo sapiens, UniProt Q96LB1); assay: FcεR1/MRGPRX2 dual-stimulation β-hexosaminidase release in freshly isolated human skin mast cells; assay type: cell-based; design: human mast cells expressing endogenous MRGPRX2; endogenous in cells; […]; conditions: Substance P plus anti-IgE (10 μg/mL); n = 3 donors
# T1 sequence (Q96LB1 1-330): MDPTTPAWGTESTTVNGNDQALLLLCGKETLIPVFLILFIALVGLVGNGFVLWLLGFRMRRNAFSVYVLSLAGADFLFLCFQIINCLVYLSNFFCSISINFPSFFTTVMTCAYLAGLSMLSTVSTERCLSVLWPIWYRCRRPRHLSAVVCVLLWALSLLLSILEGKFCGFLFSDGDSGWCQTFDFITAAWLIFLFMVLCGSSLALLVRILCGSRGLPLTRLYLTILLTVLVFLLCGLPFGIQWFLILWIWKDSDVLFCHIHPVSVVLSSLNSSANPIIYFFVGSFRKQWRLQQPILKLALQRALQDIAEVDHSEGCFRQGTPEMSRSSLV
# Experimental: (§1) Tissue was processed, removing adipose and cutting into small segments. Epidermis was removed after incubation with dispase II (2 mg/mL; Sigma-Aldrich) [100 mL/50-cm^2 tissue, base buffer; Dulbecco’s Phosphate-buffered Saline (D-PBS) (Gibco, supplemented with Ca^2+/Mg^2+), amphotericin B (2.5 μg/mL), penicillin (100 units/mL)/streptomycin (100 μg/mL) (Sigma-Aldrich)] for 37°C for 2–4 h followed by 4°C overnight. The remaining dermis was homogenized into a uniform mass and digested with an enzyme cocktail [collagenase IV (10 mg/mL; Gibco), hyaluronidase I-S (5 mg/mL; Sigma), DNAse I (10 μg/ml; Roche)] in base buffer (supplemented with 10% FBS) in a shaking incubator at 37°C for 90 min. […]
# (§2) For human primary skin mast cell degranulation experiments, both β-hexosaminidase and tryptase were measured. […] Plates were centrifuged, with supernatants collected and lysates generated [cell pellets lysed in 0.1% Tx100 (Sigma), in assay buffer], and then stored at −80°C for later quantification. β-Hexosaminidase activity assay was performed as already described. For tryptase quantification: The amount of total tryptase (α and β tryptase) was quantified using the ImmunoCap Tryptase Test ran on either a Phadia 100 or 250 Immunoassay Analyzer as per the manufacturer’s protocol. […]
# MRGPRX2 [2] = biological target: T1, MRGPRX2; assay: Substance P-stimulated tryptase release from freshly isolated human skin mast cells; assay type: cell-based; design: human mast cells expressing endogenous MRGPRX2; endogenous in cells; […]; conditions: read-out: pIC50, inhibition of Substance P-stimulated tryptase release (converted)
# Experimental: as §1, §2
# [3] = tested on: human MRGPRX2 knock-in mice; assay: Cpd 48/80-induced itch (scratching) behavioral model; assay type: in vivo, mouse; conditions: 3 mg/kg PO, Cpd 48/80 intradermal 3 h post-dose, scratching over 30 min
# Description: The generation and initial characterization of human MRGPRX2 knock-in (KI) mice has been previously reported ([15]). All experimental protocols were approved by the Animal Care and Use Committee at the Johns Hopkins University School of Medicine and studies conducted according to GSK’s Policy on the Care, Welfare and Treatment of Animals. All mice used for this study were 2- to 4-month old males and females (20–30 g) and randomized on body weight and sex using three groups of 18 animals per group.
# On the day of the experiment, animals were allowed to acclimatize to the test chamber for 10 min prior to injection. Mice received a single PO dose of Compound B (or vehicle) as a suspension in 1% methylcellulose at a dose level of 3 mg/kg (dose volume 10 mL/kg). Scratching behavior was monitored over 30 min following a single intra-dermal injection of 10 μL of Cpd 48/80 (10 μg/mL) or vehicle (saline) at 3 h post-dose of the antagonist. A bout of scratching was defined as a hindpaw directed continuous scratching movement at the injection site. The scratching behavior scorer was blinded to treatment. […]
# Figure 6 Oral treatment with the potent and selective MRGPRX2 antagonist, Compound B (3 mg/kg), blocks Cpd 48/80–induced itch response using human MRGPRX2 knock-in mice. […] Average ± SD blood-free concentration of antagonist measured at end of “itch” observation period was 19 ± 16 nM Compound B.
smiles,measurement,setting,value
C[C@@H](C(=O)Nc1cnc(Oc2ccc(F)cc2F)cn1)N1CCC(F)(F)[C@@H](c2cc[n+]([O-])cc2)C1 [Compound B],Effect on MRGPRX2-dependent augmentation of FcεR1/MRGPRX2 dual-stimulation β-hexosaminidase release,MRGPRX2 [1],selectively inhibits
same,IC50,MRGPRX2 [2],0.417 nM
same,Effect on Cpd 48/80-induced itch response,[3],significant blockade; also recorded: completely block
